For 23 compounds, T/C results are on record in PubChem BioAssay AID192 (DTP/NCI, 2004).

Several values for one entry are separate records, joined by “and”; a condition that tells them apart may be missing. Equal entries are not always repeated. Inconclusive results and toxic doses are left out.

The subject of this test is BDF1 mice, B16 melanoma ip, median survival T/C. Kind of test: NCI In Vivo Anticancer Drug Screen. Data for tumor model B16 Melanoma (intraperitoneal) in B6D2F1 (BDF1) mice. As to conditions: endpoint: median survival time, higher = longer survival. In outline: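 Tumor-bearing mice received test compound or vehicle. Survival or tumor size was then measured in both groups. The treated-group figure was divided by the control-group figure.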

Where [1] appears, read: dose: 100.0 mg/kg/injection, schedule: Q01DX009 (ip), vehicle: saline.
Setting [2] is: dose: 100.0 mg/kg/injection, schedule: Q01DX009 (ip), vehicle: Klucel (hydroxypropylcellulose) (HPC).
[3] abbreviates: dose: 200.0 mg/kg/injection, schedule: Q01DX009 (ip), vehicle: Klucel (hydroxypropylcellulose) (HPC).
The mark [4] stands for this setting: dose: 100.0 mg/kg/injection, schedule: Q01DX009 (ip), vehicle: saline with Tween-80.
Setting [5] is: dose: 12.5 mg/kg/injection, schedule: Q01DX009 (ip), vehicle: Klucel (hydroxypropylcellulose) (HPC).
The mark [6] stands for this setting: dose: 25.0 mg/kg/injection, schedule: Q01DX009 (ip), vehicle: Klucel (hydroxypropylcellulose) (HPC).
The mark [7] stands for this setting: dose: 50.0 mg/kg/injection, schedule: Q01DX009 (ip), vehicle: Klucel (hydroxypropylcellulose) (HPC).
Where [8] appears, read: dose: 400.0 mg/kg/injection, schedule: Q01DX009 (ip), vehicle: Klucel (hydroxypropylcellulose) (HPC).
The mark [9] stands for this setting: dose: 25.0 mg/kg/injection, schedule: Q01DX009 (ip), vehicle: saline.
[10] abbreviates: dose: 50.0 mg/kg/injection, schedule: Q01DX009 (ip), vehicle: saline.
The mark [11] stands for this setting: dose: 100.0 mg/kg/injection, schedule: Q04DX003 (ip), vehicle: saline with Tween-80.
[12] abbreviates: dose: 200.0 mg/kg/injection, schedule: Q04DX003 (ip), vehicle: saline with Tween-80.

For `CCCCCC(C)(O)CCCCC`, the T/C reads like this: under setting [1], 107 % of control; (dose: 200.0 mg/kg/injection, schedule: Q01DX009 (ip), vehicle: saline) 92 % of control.
Regarding `CS(=O)(=O)Nc1ccc(C(=O)O)cc1`, the T/C runs as follows: under setting [2], 100 % of control; under setting [3], 102 % of control.
Regarding `C1CC[N-]CC1.C1CC[N-]CC1.C1CC[N-]CC1.C1CC[N-]CC1.N#C[S-].N#C[S-].[Ni]`, the T/C is, setting by setting: (dose: 5.0 mg/kg/injection, schedule: Q01DX009 (ip), vehicle: saline with Tween-80) 92 % of control; (dose: 10.0 mg/kg/injection, schedule: Q01DX009 (ip), vehicle: saline with Tween-80) 104 % of control.
With `Cc1nnc(NS(=O)(=O)c2ccc(N=Nc3nc4[nH]c(N)nc(=S)c4[nH]3)cc2)s1`, the T/C is, setting by setting: (dose: 25.0 mg/kg/injection, schedule: Q01DX009 (ip), vehicle: saline with Tween-80) 112 % of control; (dose: 50.0 mg/kg/injection, schedule: Q01DX009 (ip), vehicle: saline with Tween-80) 100 % of control; under setting [4], 92 % of control.
Consider `CC(C)NNC(=O)c1ccc(Cl)cc1`, for which the T/C is, setting by setting: (dose: 6.25 mg/kg/injection, schedule: Q01DX009 (ip), vehicle: Klucel (hydroxypropylcellulose) (HPC)) 89 % of control; under setting [5], 92 % of control; under setting [6], 89 % of control; under setting [7], 94 % of control; under setting [2], 107 % of control.
Take `COc1ccccc1NC(=O)Nc1ccccc1`: the T/C reads like this: under setting [2], 104 % of control; under setting [3], 103 % of control; under setting [8], 109 % of control.
For the compound `COc1cccc(CNc2ccc(C)cc2C)c1OC`, the T/C is 96 % of control under setting [2], 103 % of control under setting [3] and 96 % of control under setting [8].
For `Cc1ccccc1OS(=O)(=O)c1cccc([N+](=O)[O-])c1`, the T/C was 113 % of control under setting [4]; 113 % of control (dose: 200.0 mg/kg/injection, schedule: Q01DX009 (ip), vehicle: saline with Tween-80); 107 % of control (dose: 400.0 mg/kg/injection, schedule: Q01DX009 (ip), vehicle: saline with Tween-80).
Turning to `CC1(C)N=C(N)N=C(N)N1c1ccc(OCC(=O)N2CCOCC2)c(Cl)c1`, the T/C reads like this: under setting [9], 104 % of control; under setting [10], 93 % of control; under setting [1], 98 % of control.
Turning to `CCCCCCCCOC(=O)Nc1ccc(OCC)cc1`, the T/C (dose: 1.5 mg/kg/injection, schedule: Q01DX009 (ip), vehicle: saline with Tween-80) is 107 % of control; the T/C (dose: 3.0 mg/kg/injection, schedule: Q01DX009 (ip), vehicle: saline with Tween-80) is 96 % of control; the T/C (dose: 6.0 mg/kg/injection, schedule: Q01DX009 (ip), vehicle: saline with Tween-80) is 96 % of control.
On to `COC(=O)CC(=O)CBr`, for which the T/C runs as follows: (dose: 5.0 mg/kg/injection, schedule: Q01DX009 (ip), vehicle: saline) 100 % of control; (dose: 10.0 mg/kg/injection, schedule: Q01DX009 (ip), vehicle: saline) 93 % of control; (dose: 20.0 mg/kg/injection, schedule: Q01DX009 (ip), vehicle: saline) 94 % of control.
For `CCCCNCC1COc2cccc(OCC)c2O1` (configuration not stated), the T/C (dose: 3.12 mg/kg/injection, schedule: Q01DX009 (ip), vehicle: saline) was 120 % of control; the T/C (dose: 6.25 mg/kg/injection, schedule: Q01DX009 (ip), vehicle: saline) is 95 % of control; the T/C (dose: 12.5 mg/kg/injection, schedule: Q01DX009 (ip), vehicle: saline) is 97 % of control; the T/C under setting [9] is 105 % of control; the T/C under setting [10] was 100 % of control.
As for `O=S(=O)(O)O.[NH-]C1CCCCC1[NH-].[Pt+2]` (configuration not stated), the T/C was 156 % of control and 167 % of control (dose: 0.32 mg/kg/injection, schedule: Q01DX009 (ip), vehicle: water); 175 % of control (dose: 0.63 mg/kg/injection, schedule: Q01DX009 (ip), vehicle: dextrose); 160 % of control (dose: 0.63 mg/kg/injection, schedule: Q04DX003 (ip), vehicle: water); 163 % of control (dose: 1.25 mg/kg/injection, schedule: Q01DX009 (ip), vehicle: dextrose); 163 % of control (dose: 1.25 mg/kg/injection, schedule: Q04DX003 (ip), vehicle: water); 150 % of control (dose: 3.0 mg/kg/injection, schedule: Q01DX009 (ip), vehicle: water). Further, the T/C runs as follows: (dose: 4.0 mg/kg/injection, schedule: Q01DX009 (ip), vehicle: water) 150 % of control; (dose: 5.0 mg/kg/injection, schedule: Q04DX003 (ip), vehicle: water) 155 % of control.
On to `[N-]=[N+]=C1Cc2ccccc2C1=O`, for which the T/C is 97 % of control under setting [2] and 105 % of control under setting [3].
As for `NNC(=S)N/N=C/c1ccc([N+](=O)[O-])s1`, the T/C under setting [6] is 88 % of control and the T/C under setting [2] is 89 % of control.
Consider `COC(=O)c1ccc(Cl)nc1`, for which the T/C reads like this: under setting [2], 94 % of control; under setting [8], 94 % of control.
Take `NC(=S)N/N=C/c1ccc2c(c1)OCO2`: the T/C (dose: 50.0 mg/kg/injection, schedule: Q04DX003 (ip), vehicle: saline with Tween-80) is 106 % of control; the T/C under setting [11] was 106 % of control; the T/C under setting [12] is 110 % of control.
As for `CC[n+]1ccc(Nc2ccc(NC(=O)c3ccc(C(=O)Nc4ccc(Nc5cc[n+](CC)c(N)n5)cc4)cc3)cc2)nc1N`, the T/C reads like this: (dose: 25.0 mg/kg/injection, schedule: Q01DX009 (ip), vehicle: suspension in saline) 162 % of control; (dose: 50.0 mg/kg/injection, schedule: Q01DX009 (ip), vehicle: suspension in saline) 163 % of control.
On to `N#Cc1nc2ccccc2nc1C#N`, for which the T/C is, setting by setting: under setting [5], 110 % of control; (dose: 12.5 mg/kg/injection, schedule: Q04DX003 (ip), vehicle: Klucel (hydroxypropylcellulose) (HPC)) 97 % of control; (dose: 25.0 mg/kg/injection, schedule: Q04DX003 (ip), vehicle: Klucel (hydroxypropylcellulose) (HPC)) 102 % of control; (dose: 50.0 mg/kg/injection, schedule: Q04DX003 (ip), vehicle: Klucel (hydroxypropylcellulose) (HPC)) 95 % of control.
In the case of `Cc1ccc(CNc2ccc(C)cc2)cc1`, the T/C was 100 % of control under setting [2] and 100 % of control under setting [3].
Regarding `Cc1ccc(NC(=O)c2ccccc2)cc1[As]=[As]c1cc(NC(=O)c2ccccc2)ccc1C` (configuration not stated), the T/C reads like this: (dose: 0.04 mg/kg/injection, schedule: Q01DX009 (ip), vehicle: saline with Tween-80) 107 % of control; (dose: 0.08 mg/kg/injection, schedule: Q01DX009 (ip), vehicle: saline with Tween-80) 102 % of control; (dose: 0.08 mg/kg/injection, schedule: Q04DX003 (ip), vehicle: saline) 101 % of control; (dose: 0.15 mg/kg/injection, schedule: Q01DX009 (ip), vehicle: saline with Tween-80) 104 % of control; (dose: 0.15 mg/kg/injection, schedule: Q04DX003 (ip), vehicle: saline) 91 % of control; (dose: 0.16 mg/kg/injection, schedule: Q04DX003 (ip), vehicle: Klucel (hydroxypropylcellulose) (HPC)) 101 % of control. Besides, the T/C was 100 % of control (dose: 0.3 mg/kg/injection, schedule: Q01DX009 (ip), vehicle: saline with Tween-80); 92 % of control (dose: 0.3 mg/kg/injection, schedule: Q04DX003 (ip), vehicle: saline); 98 % of control (dose: 0.31 mg/kg/injection, schedule: Q04DX003 (ip), vehicle: Klucel (hydroxypropylcellulose) (HPC)); 91 % of control (dose: 0.6 mg/kg/injection, schedule: Q04DX003 (ip), vehicle: saline); 89 % of control (dose: 0.63 mg/kg/injection, schedule: Q04DX003 (ip), vehicle: saline with Tween-80); 161 % of control (dose: 2.5 mg/kg/injection, schedule: Q04DX003 (ip), vehicle: saline with Tween-80). Moreover, where the note is “dose: 5.0 mg/kg/injection, schedule: Q04DX003 (ip), vehicle: saline with Tween-80”, the T/C was 105 % of control.
In the case of `COc1c2ccoc2c(OCC=C(C)C)c2oc(=O)ccc12`, the T/C is 94 % of control under setting [11]; 105 % of control under setting [12]; 97 % of control (dose: 400.0 mg/kg/injection, schedule: Q04DX003 (ip), vehicle: saline with Tween-80).
`Nc1nc(N)c(-c2ccc(Cl)c(Cl)c2)c(CP(Cl)(Cl)(Cl)Br)n1`: the T/C was 112 % of control (dose: 6.3 mg/kg/injection, schedule: Q01DX009 (ip), vehicle: Klucel (hydroxypropylcellulose) (HPC)); 111 % of control under setting [5]; 115 % of control under setting [6]; 123 % of control under setting [7].
